The source of these data is patent publication US20070224267A1, “Ambroxol for the treatment of painful conditions in the mouth and pharyngeal cavity” (priority 2002, published 2007).

Where a name gives a salt, the structure may show the parent alone.

Series [1] has as its system patients with acute sore throat. Nature of the series: Clinical trial of suckable tablets containing 20 or 30 mg ambroxol hydrochloride vs placebo in acute sore throat (Example 2). In kind it is in vivo. The settings on record: for average SPIDnorm (±SD) after the first suckable tablet: time-weighted average pain reduction in first 3 hours, standardised to initial pain, placebo 0.38±0.28. Here is the method:
A multi-centred, prospective, placebo-controlled, randomised double-blind trial was carried out over three days' treatment with up to 6 suckable tablets containing ambroxol hydrochloride per day. Patients: 331 ambulant patients with acute uncomplicated sore throats of at least moderate severity but with no bacterial pharyngitis were investigated. Treatments: Double-blind treatment with up to 6 suckable tablets per day containing either 20 mg or 30 mg of ambroxol hydrochloride or constituting a placebo (suckable tablet without the active substance, but again with a marked flavour of peppermint similar to the test substance). End points: The average pain reduction, weighted for time, during the first 3 hours after administration of the first suckable tablet, standardised to the degree of initial pain (SPIDnorm); moreover, the assessment of effectiveness and tolerance by the patient at the end of each day of treatment.

The test system is the same in series [2]. Nature of the series: Clinical trial of suckable tablets containing 20 mg ambroxol hydrochloride vs placebo in acute sore throat (Example 1). The series is classed as in vivo. Here is the method: A multi-centred, prospective, placebo-controlled, randomised double-blind trial was carried out over two days' treatment with up to 6 suckable tablets containing ambroxol hydrochloride per day. Patients: 218 patients (97 men, 121 women) with an average age of 39.4±15 years (range from 17-81 years) were recruited; of these 215 patients were treated: 107 with 20 mg of ambroxol and 108 with placebo. 26 patients stopped the treatment early (13 in each treatment group). The intent-to-treat (ITT) population consisted of 208 patients (105 treated with ambroxol and 103 given the placebo); 196 patients formed the per-protocol (PP) population (97 with test substance and 99 with placebo). For the drug safety analysis, all the patients treated were studied. Treatments: Double-blind treatment with up to 6 suckable tablets per day, which either contained 20 mg of ambroxol or constituted a placebo (suckable tablet without the active substance, but with a marked flavour of peppermint similar to the test substance). End points: The average pain reduction, weighted for time, during the first 3 hours after administration of the first suckable tablet, standardised to the degree of initial pain (SPIDnorm); moreover, the assessment of effectiveness and tolerance by the patient at the end of each day of treatment.

Where [3] appears, read: up to 6 suckable tablets of 20 mg per day, two days, vs placebo.

For the molecule `Nc1c(Br)cc(Br)cc1CN[C@H]1CC[C@H](O)CC1` [ambroxol hydrochloride, trans-4-[(2-amino-3,5-dibromobenzyl)amino]cyclohexano hydrochloride], the “average SPIDnorm (±SD) after the first suckable tablet” value in series [1] (20 mg suckable tablet) was determined as 0.53±0.28; in series [1] (30 mg suckable tablet), 0.50±0.30; in series [2] (20 mg suckable tablet, time-weighted average pain reduction in first 3 hours, standardised to initial pain, placebo 0.28±0.25) it was 0.39±0.27. In addition, the “assessment of effectiveness by the patient at the end of each day of treatment” value in series [1] (up to 6 suckable tablets of 20 or 30 mg per day, three days, vs placebo) is “statistically significantly larger number of patients reported a higher degree of effectiveness”; in series [2] (setting [3]), “statistically significantly larger number of patients reported a higher degree of effectiveness”. The tolerance entry in series [1] (up to 6 suckable tablets per day, three days, all dosages (20 and 30 mg), vs placebo) is “tolerated just as well as the placebo”; in series [2] (setting [3]), “tolerated just as well as the placebo”.
